Test results from the NIST ThermoML archive (doi:10.1016/j.fluid.2015.07.012).

Assay: xn = mol fraction of the nth substance listed
Details: Liquid; for viscosity: Capillary tube (Ostwald / Ubbelohde) method; for mass density: Vibrating tube method

CCCO [propan-1-ol] + O
Details | mass density, 10000 kPa [kg/m3] | mass density, 20000 kPa [kg/m3] | mass density, 30000 kPa [kg/m3] | mass density, 40000 kPa [kg/m3] | viscosity, 10000 kPa [mPa·s] | viscosity, 20000 kPa [mPa·s] | viscosity, 30000 kPa [mPa·s] | viscosity, 40000 kPa [mPa·s]
350.7 K, x1 = 0.1 | 919.5 | 924.38 | 929.09 | 934.42 | 0.591 | 0.611 | 0.63 | 0.635
350.7 K, x1 = 0.2 | 878.37 | 883.66 | 889.66 | 895.4 | 0.723 | 0.763 | 0.81 | 0.826
350.7 K, x1 = 0.3 | 847.8 | 854.62 | 861.08 | 866.79 | 0.77 | 0.814 | 0.85 | 0.861
350.7 K, x1 = 0.4 | 826 | 833.03 | 840.74 | 847.26 | 0.758 | 0.81 | 0.86 | 0.883
350.7 K, x1 = 0.6 | 796.1 | 804.64 | 812.37 | 819.69 | 0.737 | 0.774 | 0.848 | 0.88
350.7 K, x1 = 0.8 | 776.11 | 786.05 | 794.61 | 802.32 | 0.689 | 0.736 | 0.827 | 0.864
350.7 K, x1 = 1 | 763.09 | 772.75 | 781.33 | 789.02 | 0.694 | 0.753 | 0.823 | 0.869
373.2 K, x1 = 0.1 | 900.32 | 905.78 | – | – | 0.439 | 0.441 | – | –
373.2 K, x1 = 0.2 | 857.3 | 863.27 | – | – | 0.504 | 0.513 | – | –
373.2 K, x1 = 0.3 | 827.05 | 834.28 | – | – | 0.531 | 0.55 | – | –
373.2 K, x1 = 0.4 | 804.56 | 813.43 | – | – | 0.514 | 0.542 | – | –
373.2 K, x1 = 0.6 | 774.56 | 784.28 | – | – | 0.51 | 0.541 | – | –
373.2 K, x1 = 0.8 | 755.44 | 765.59 | – | – | 0.49 | 0.531 | – | –
373.2 K, x1 = 1 | 741.54 | 752.5 | – | – | 0.488 | 0.533 | – | –
